Results reported in ChEMBL document CHEMBL5370553, “Small-molecule LRRK2 inhibitors for PD therapy: Current achievements and future perspectives” (Eur J Med Chem, 2023).

Key:
[1] = molecular target: T1, Leucine-rich repeat serine/threonine-protein kinase 2 (Homo sapiens, UniProt Q5S007); assay: Inhibition of human full length LRRK2 using RLGRDKYKTLRQIRQ peptide as substrate by mass spectrometry analysis
[2] = molecular target: T1, Leucine-rich repeat serine/threonine-protein kinase 2; assay: Inhibition of human LRRK2 measured after 60 mins by TR-FRET assay
[3] = Oral bioavailability in CD-1 mouse at 5 mg/kg; assay type: ADME, organism-based; conditions: in vivo
[4] = molecular target: T2, Leucine-rich repeat serine/threonine-protein kinase 2 (Homo sapiens, UniProt Q5S007, G2019S); assay: Inhibition of human LRRK2 G2019S mutant measured after 60 mins by TR-FRET assay
T2 sequence (Q5S007 whole entry G2019S): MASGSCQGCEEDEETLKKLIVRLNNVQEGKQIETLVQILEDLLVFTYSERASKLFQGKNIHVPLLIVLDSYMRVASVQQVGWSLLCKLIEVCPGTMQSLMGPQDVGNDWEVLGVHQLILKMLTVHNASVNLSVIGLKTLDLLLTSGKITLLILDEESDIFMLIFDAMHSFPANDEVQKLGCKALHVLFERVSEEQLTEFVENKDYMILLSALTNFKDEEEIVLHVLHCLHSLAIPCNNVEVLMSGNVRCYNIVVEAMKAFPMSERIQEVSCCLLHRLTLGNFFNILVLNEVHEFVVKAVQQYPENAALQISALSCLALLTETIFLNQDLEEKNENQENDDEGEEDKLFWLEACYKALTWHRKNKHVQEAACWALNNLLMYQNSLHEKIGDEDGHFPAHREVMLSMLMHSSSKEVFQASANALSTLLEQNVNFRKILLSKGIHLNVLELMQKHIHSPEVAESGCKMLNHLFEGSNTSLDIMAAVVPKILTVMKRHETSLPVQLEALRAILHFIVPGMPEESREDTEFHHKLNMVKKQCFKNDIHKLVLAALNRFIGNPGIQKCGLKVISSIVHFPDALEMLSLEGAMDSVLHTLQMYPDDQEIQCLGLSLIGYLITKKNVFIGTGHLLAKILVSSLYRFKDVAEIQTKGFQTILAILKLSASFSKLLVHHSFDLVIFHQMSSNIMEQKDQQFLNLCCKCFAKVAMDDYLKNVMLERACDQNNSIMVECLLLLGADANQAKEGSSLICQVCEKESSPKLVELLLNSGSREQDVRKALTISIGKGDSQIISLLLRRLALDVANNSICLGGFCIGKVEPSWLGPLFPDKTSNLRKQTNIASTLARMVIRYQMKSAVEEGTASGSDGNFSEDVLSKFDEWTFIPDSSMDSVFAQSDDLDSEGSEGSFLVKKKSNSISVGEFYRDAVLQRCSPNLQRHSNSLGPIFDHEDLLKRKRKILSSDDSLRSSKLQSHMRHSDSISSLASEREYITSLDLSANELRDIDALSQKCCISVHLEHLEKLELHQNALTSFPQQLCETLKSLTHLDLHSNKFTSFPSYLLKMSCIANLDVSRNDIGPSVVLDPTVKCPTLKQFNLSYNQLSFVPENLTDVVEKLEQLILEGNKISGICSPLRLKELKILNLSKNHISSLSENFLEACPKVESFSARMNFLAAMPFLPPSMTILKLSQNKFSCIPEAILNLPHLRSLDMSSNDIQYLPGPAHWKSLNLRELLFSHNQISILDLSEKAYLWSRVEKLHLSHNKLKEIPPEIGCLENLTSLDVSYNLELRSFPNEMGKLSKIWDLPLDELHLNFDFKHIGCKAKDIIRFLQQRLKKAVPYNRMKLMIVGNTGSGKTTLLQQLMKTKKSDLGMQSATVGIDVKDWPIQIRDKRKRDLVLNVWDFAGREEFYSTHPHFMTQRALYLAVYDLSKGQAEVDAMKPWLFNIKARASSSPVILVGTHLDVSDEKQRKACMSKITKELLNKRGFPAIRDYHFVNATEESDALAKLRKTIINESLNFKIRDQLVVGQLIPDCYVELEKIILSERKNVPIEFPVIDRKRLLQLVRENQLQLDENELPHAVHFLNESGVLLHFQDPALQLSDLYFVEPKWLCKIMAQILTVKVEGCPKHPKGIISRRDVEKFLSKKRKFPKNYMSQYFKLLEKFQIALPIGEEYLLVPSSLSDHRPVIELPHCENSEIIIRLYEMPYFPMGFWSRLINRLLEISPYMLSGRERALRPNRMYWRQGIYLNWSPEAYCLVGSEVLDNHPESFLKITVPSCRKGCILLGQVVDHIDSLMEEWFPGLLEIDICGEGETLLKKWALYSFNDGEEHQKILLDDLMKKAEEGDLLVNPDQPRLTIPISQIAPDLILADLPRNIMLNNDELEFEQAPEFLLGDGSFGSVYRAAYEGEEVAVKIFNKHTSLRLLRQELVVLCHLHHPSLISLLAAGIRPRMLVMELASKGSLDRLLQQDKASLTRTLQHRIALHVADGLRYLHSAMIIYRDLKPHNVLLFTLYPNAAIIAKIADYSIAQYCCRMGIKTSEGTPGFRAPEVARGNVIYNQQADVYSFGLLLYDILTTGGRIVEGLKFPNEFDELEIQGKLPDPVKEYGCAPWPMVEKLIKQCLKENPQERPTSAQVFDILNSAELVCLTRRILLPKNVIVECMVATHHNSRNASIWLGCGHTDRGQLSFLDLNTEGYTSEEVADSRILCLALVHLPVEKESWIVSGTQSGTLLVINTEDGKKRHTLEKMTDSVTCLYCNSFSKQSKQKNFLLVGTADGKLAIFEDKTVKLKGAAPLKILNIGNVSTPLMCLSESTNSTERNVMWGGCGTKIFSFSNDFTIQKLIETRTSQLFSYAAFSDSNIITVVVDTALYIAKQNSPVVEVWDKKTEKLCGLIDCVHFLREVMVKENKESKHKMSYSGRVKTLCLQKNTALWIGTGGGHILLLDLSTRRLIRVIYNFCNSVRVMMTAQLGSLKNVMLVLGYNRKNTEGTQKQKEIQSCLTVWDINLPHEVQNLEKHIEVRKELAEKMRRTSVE

[5] = Half life in CD-1 mouse at 1 mg/kg, iv; assay type: ADME, organism-based; conditions: in vivo
[6] = molecular target: T1, Leucine-rich repeat serine/threonine-protein kinase 2; assay: Inhibition of GST20-tagged human LRRK2 by cell based assay
[7] = molecular target: T1, Leucine-rich repeat serine/threonine-protein kinase 2; assay: Inhibition of GST20-tagged human LRRK2 using ERM as substrate measured after 90 mins in presence of ATP by lanthascreen TR-FRET assay
[8] = Half life in mouse; assay type: ADME, organism-based; conditions: in vivo
[9] = molecular target: T2, Leucine-rich repeat serine/threonine-protein kinase 2; assay: Inhibition of LRRK2 G2019S mutant (unknown origin)
[10] = Half life in rat; assay type: ADME; conditions: in vivo
[11] = Oral bioavailability in rat; assay type: ADME, organism-based; conditions: in vivo
[12] = molecular target: T1, Leucine-rich repeat serine/threonine-protein kinase 2; assay: Inhibition of LRRK2 (unknown origin)
[13] = Mean residence time in Beagle dog by LC-MS/MS analysis; assay type: ADME, Canis lupus familiaris; conditions: in vivo
[14] = Mean residence time in rat by LC-MS/MS analysis; assay type: ADME; conditions: in vivo
[15] = Oral bioavailability in Beagle dog by LC-MS/MS analysis; assay type: ADME, organism-based, Canis lupus familiaris; conditions: in vivo
[16] = molecular target: Dual specificity protein kinase CLK2 (Homo sapiens, UniProt P49760); assay: Inhibition of CLK2 (unknown origin) by fluorescence based assay
Dual specificity protein kinase CLK2, sequence (P49760 whole entry): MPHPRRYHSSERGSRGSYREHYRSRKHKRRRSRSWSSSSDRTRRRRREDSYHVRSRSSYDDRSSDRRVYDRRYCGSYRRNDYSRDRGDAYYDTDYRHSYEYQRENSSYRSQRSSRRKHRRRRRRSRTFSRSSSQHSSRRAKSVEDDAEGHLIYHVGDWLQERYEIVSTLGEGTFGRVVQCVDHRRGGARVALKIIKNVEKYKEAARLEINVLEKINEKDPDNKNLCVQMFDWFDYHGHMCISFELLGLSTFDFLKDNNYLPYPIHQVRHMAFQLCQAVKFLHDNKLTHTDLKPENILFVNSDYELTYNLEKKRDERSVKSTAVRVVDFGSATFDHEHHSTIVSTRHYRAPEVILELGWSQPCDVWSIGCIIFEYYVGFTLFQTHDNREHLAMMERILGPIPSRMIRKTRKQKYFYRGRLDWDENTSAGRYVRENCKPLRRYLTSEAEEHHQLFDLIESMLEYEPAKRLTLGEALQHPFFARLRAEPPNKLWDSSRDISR

[17] = Oral bioavailability in rat by LC-MS/MS analysis; assay type: ADME, organism-based; conditions: in vivo
[18] = molecular target: T3, von Hippel-Lindau disease tumor suppressor/Leucine-rich repeat serine/threonine-protein kinase 2 (Homo sapiens) (UniProt Q5S007+P40337); assay: PROTAC activity at VHL/LRRK2 in human PBMC cells assessed as reduction of protein degradation at 300 nM measured after 4 hrs by Western blot analysis relative to control; assay type: cell-based
T3 sequence (P40337 whole entry, looked up): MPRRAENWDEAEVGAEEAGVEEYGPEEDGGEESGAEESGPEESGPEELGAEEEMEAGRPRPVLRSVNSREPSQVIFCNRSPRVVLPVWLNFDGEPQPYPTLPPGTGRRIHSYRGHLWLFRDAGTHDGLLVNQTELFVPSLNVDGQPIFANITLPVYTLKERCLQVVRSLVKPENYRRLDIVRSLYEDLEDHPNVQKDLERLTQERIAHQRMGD
T3 sequence (Q5S007 whole entry, looked up): as the sequence (Q5S007 whole entry G2019S) above, with S2019G counted along it

[19] = tested on: von Hippel-Lindau disease tumor suppressor/Leucine-rich repeat serine/threonine-protein kinase 2 (Homo sapiens), Q5S007+P40337 [G2019S]; assay: PROTAC activity at VHL/LRRK2 G2019S mutant in human PBMC cells assessed as induction of degradation by measuring half life measured after 24 hrs by Western blot analysis; assay type: cell-based
[20] = molecular target: T4, von Hippel-Lindau disease tumor suppressor/Leucine-rich repeat serine/threonine-protein kinase 2 (Homo sapiens, UniProt P40337+Q5S007); assay: PROTAC activity at VHL/LRRK2 in human PBMC cells assessed as reduction of protein degradation measured after 4 hrs by Western blot; assay type: cell-based
T4 sequence (Q5S007 whole entry): as the sequence (Q5S007 whole entry G2019S) above, with S2019G counted along it
T4 sequence (P40337 whole entry): as the sequence (P40337 whole entry, looked up) above

[21] = molecular target: T5, von Hippel-Lindau disease tumor suppressor/Leucine-rich repeat serine/threonine-protein kinase 2 (Homo sapiens, UniProt P40337+Q5S007, G2019S); assay: PROTAC activity at VHL/LRRK2 G2019S mutant in human PBMC cells assessed as reduction of protein degradation measured after 4 hrs by Western blot; assay type: cell-based
T5 sequence (P40337 whole entry, stated change not applied): as the sequence (P40337 whole entry, looked up) above
T5 sequence (Q5S007 whole entry G2019S, stated change not applied): as the sequence (Q5S007 whole entry G2019S) above

[22] = tested on: von Hippel-Lindau disease tumor suppressor/Leucine-rich repeat serine/threonine-protein kinase 2 (Homo sapiens), Q5S007+P40337 [G2019S]; assay: PROTAC activity at VHL/LRRK2 G2019S mutant in human PBMC cells assessed as reduction of protein degradation at 300 nM measured after 4 hrs by Western blot analysis relative to control; assay type: cell-based
[23] = molecular target: T3, von Hippel-Lindau disease tumor suppressor/Leucine-rich repeat serine/threonine-protein kinase 2 (Homo sapiens); assay: PROTAC activity at VHL/LRRK2 in human PBMC cells assessed as induction of degradation by measuring half life measured after 24 hrs by Western blot analysis; assay type: cell-based
[24] = tested on: von Hippel-Lindau disease tumor suppressor/Leucine-rich repeat serine/threonine-protein kinase 2 (Homo sapiens), Q5S007+P40337 [G2019S]; assay: PROTAC activity at VHL/LRRK2 G2019S mutant in human PBMC cells assessed as reduction of protein degradation measured after 24 hrs by Western blot analysis relative to control; assay type: cell-based
[25] = molecular target: T3, von Hippel-Lindau disease tumor suppressor/Leucine-rich repeat serine/threonine-protein kinase 2 (Homo sapiens); assay: PROTAC activity at VHL/LRRK2 in human PBMC cells assessed as reduction of protein degradation measured after 24 hrs by Western blot analysis relative to control; assay type: cell-based
[26] = molecular target: T1, Leucine-rich repeat serine/threonine-protein kinase 2; assay: Inhibition of recombinant N-terminal GST-tagged human LRRK2 expressed in Sf9 insect cells using H-RLGAWRFTTLRRARQGNTKQR-OH peptide as substrate
[27] = molecular target: T2, Leucine-rich repeat serine/threonine-protein kinase 2; assay: Inhibition of recombinant N-terminal GST-tagged human G2019S LRRK2 expressed in Sf9 insect cells using H-RLGAWRFTTLRRARQGNTKQR-OH peptide as substrate
[28] = molecular target: T4, von Hippel-Lindau disease tumor suppressor/Leucine-rich repeat serine/threonine-protein kinase 2; assay: PROTAC activity at VHL/LRRK2 in human PBMC cells assessed as reduction of protein degradation measured after 24 hrs by Western blot; assay type: cell-based
[29] = Oral bioavailability in mouse at 30 mg/kg measured upto 8 hrs by LC-MS/MS analysis; assay type: ADME, organism-based; conditions: in vivo
[30] = molecular target: T5, von Hippel-Lindau disease tumor suppressor/Leucine-rich repeat serine/threonine-protein kinase 2; assay: PROTAC activity at VHL/LRRK2 G2019S mutant in human PBMC cells assessed as reduction of protein degradation measured after 24 hrs by Western blot; assay type: cell-based
[31] = molecular target: Protein cereblon/Leucine-rich repeat serine/threonine-protein kinase 2 (Mus musculus, UniProt Q5S006+Q8C7D2); assay: PROTAC activity at CRBN/LRRK2 in mouse RAW264.7 cells assessed as reduction of protein degradation measured after 24 hrs by Western blot analysis; assay type: cell-based
[32] = molecular target: Leucine-rich repeat serine/threonine-protein kinase 2 (Mus musculus, UniProt Q5S006); assay: Inhibition of mouse LRRK2
[33] = molecular target: T1, Leucine-rich repeat serine/threonine-protein kinase 2; assay: Inhibition of GST-tagged recombinant human LRRK2 expressed in Insect cell using ERM as substrate measured after 1 hrs
[34] = molecular target: T2, Leucine-rich repeat serine/threonine-protein kinase 2; assay: Inhibition of GST-tagged human LRRK2 G2019S mutant expressed in Insect cell using ERM as substrate measured after 1 hrs
[35] = molecular target: T2, Leucine-rich repeat serine/threonine-protein kinase 2; assay: Inhibition of human LRRK2 G2019S mutant using LRRKtide as substrate measured after 1 hrs by caliper mobility shift assay
[36] = molecular target: T1, Leucine-rich repeat serine/threonine-protein kinase 2; assay: Inhibition of human LRRK2 using LRRKtide as substrate measured after 1 hrs by caliper mobility shift assay

T1 sequence (Q5S007 whole entry): as the sequence (Q5S007 whole entry G2019S) above, with S2019G counted along it

Cc1c2c(nn1C1CCOCC1)OCCCNc1nc(ncc1Cl)N2
IC50 [1]: ≤ 100 nM

COc1cc(N2CCOCC2)ccc1Nc1ncc(F)c(Nc2ccccc2NS(C)(=O)=O)n1
IC50 [2]: 4.76 nM
bioavailability [3]: 133%
IC50 [4]: 6.87 nM
half-life [5]: 1 h

CC(C)(O)[C@@H]1CCN(c2cnc(C(F)(F)F)c(NC(=O)c3cccc(-c4cnn(CC(F)(F)F)c4)n3)c2)C1
IC50 [6]: 0.7 nM
IC50 [7]: 10 nM

COc1cc(C(=O)N2CCC(N3CCN(C)CC3)CC2)ccc1Nc1ncc2c(n1)N(C)c1ccccc1C(=O)N2C
half-life [8]: 4.5 h

CCNc1nc(Nc2cc(F)c(C(=O)N3CCOCC3)cc2OC)ncc1C(F)(F)F
IC50 [9]: 1 nM
half-life [10]: 3.1 h
bioavailability [11]: 40%

C=CC(=O)Nc1cccc(Oc2nc(Nc3ccc(N4CCN(C)CC4)c(F)c3)nc3[nH]ccc23)c1 [ABIVERTINIB]
IC50 [9]: 410 nM
IC50 [12]: 177 nM

Cn1cc(-c2cccc(C(=O)Nc3cc(N4CCC(C(C)(C)O)C4)ncc3C(F)(F)F)n2)cn1 (stereo not given)
MRT [13]: 3.6 h
MRT [14]: 5.2 h
IC50 [6]: 2.5 nM
IC50 [7]: 1 nM
bioavailability [15]: 43%
IC50 [16]: 63 nM
bioavailability [17]: 16%

CNc1nc(Nc2ccc(C(=O)N3CCN(C[C@H]4CC[C@@H](CSC(C)(C)[C@H](NC(=O)C5(F)CC5)C(=O)N5C[C@H](O)C[C@H]5C(=O)NCc5ccc(-c6scnc6C)cc5)CC4)CC3)cc2OC)ncc1Cl
Emax [18]: 59%
T1/2 [19]: 1.4 h
EC50 [20]: 32 nM
EC50 [21]: 7 nM
Emax [22]: 90%
T1/2 [23]: 2.7 h

Cn1cc(-c2nc(C(=O)Nc3cnn(C4CCC4)c3)cs2)cn1
IC50 [6]: 271 nM
IC50 [7]: 14 nM

CC(C)Nc1nc(Nc2ccc(C(=O)NCc3ccccc3)cc2)nc2ccsc12
IC50 [9]: 14 nM
IC50 [12]: 30 nM

COc1cc(N2CCOCC2)ccc1Nc1ncc(Cl)c(Nc2ccccc2NS(C)(=O)=O)n1
IC50 [2]: 1.28 nM
IC50 [4]: 1.85 nM

CNc1nc(Nc2ccc(C(=O)N3CCN(CCOCCOCCSC(C)(C)[C@H](NC(=O)C4(F)CC4)C(=O)N4C[C@H](O)C[C@H]4C(=O)NCc4ccc(-c5scnc5C)cc4)CC3)cc2OC)ncc1Cl
T1/2 [19]: 1.4 h
Emax [24]: 58%
T1/2 [23]: 5.1 h
Emax [25]: 51%

CCC(Sc1ccc2nnc(-c3cccs3)n2n1)C(=O)N1CCCCC1 (stereo not given)
IC50 [26]: 146 nM
IC50 [27]: 75 nM

CNc1nc(Nc2ccc(C(=O)N3CCN(C[C@H]4CC[C@H](CSC(C)(C)[C@H](NC(=O)C5(F)CC5)C(=O)N5C[C@H](O)C[C@H]5C(=O)NCc5ccc(-c6scnc6C)cc5)CC4)CC3)cc2OC)ncc1Cl
Emax [18]: 82%
IC50 [28]: 12.4 nM
T1/2 [19]: 0.6 h
bioavailability [29]: 15%
EC50 [20]: 32 nM
EC50 [21]: 14 nM
IC50 [30]: 24.3 nM
Emax [22]: 81%
T1/2 [23]: 1.2 h

CCNc1nc(Nc2cc(F)c(C(=O)NCCCCNc3cccc4c3C(=O)N(C3CCC(=O)NC3=O)C4=O)cc2OC)ncc1C(F)(F)F (stereo not given)
IC50 [31]: 14.7 nM

Cn1cc(-c2cccc(C(=O)Nc3cc(N4CC[C@@H](C(C)(C)O)C4)cnc3C(F)(F)F)n2)cn1
IC50 [6]: 21 nM
IC50 [7]: 17 nM

CCOc1cc(N2CCOCC2)ccc1Nc1ncc(F)c(Nc2ccccc2NS(C)(=O)=O)n1
IC50 [32]: 190 nM

Cn1cc(-c2c[nH]c3ncnc(N4CCOCC4)c23)cc1C#N
IC50 [33]: 13 nM
IC50 [34]: 6.37 nM

CNc1nc(N/N=C/c2cccc3ccccc23)nc(Nc2cccc(C(F)(F)F)c2)n1
IC50 [35]: 378 nM
IC50 [36]: 424 nM
